Experimental data as given in patent US11364211B2, “Methods for selecting phosphatase selective and non-selective phosphatase inhibitors” (MEDICAL RESEARCH COUNCIL, priority 2015, dated 2022).
Entries after “also recorded” stand apart in the source; their conditions may differ.

Key:
PPP1R15B-PP1 complex = target: T1, PPP1R15B-PP1 complex (Homo sapiens, UniProt Q5SWA1); assay: SPR steady-state binding to R15B-PP1c holophosphatase on streptavidin chip; details: SPR
T1 construct: 340-698 of PPP1R15B were His-tagged and cloned into pMAL-c5x; made in house; host or cells: R15B fragment: E. coli BL21-Gold; BAP-PP1γ: Sf9 insect cells (baculovirus)
T1 sequence (Q5SWA1 340-698): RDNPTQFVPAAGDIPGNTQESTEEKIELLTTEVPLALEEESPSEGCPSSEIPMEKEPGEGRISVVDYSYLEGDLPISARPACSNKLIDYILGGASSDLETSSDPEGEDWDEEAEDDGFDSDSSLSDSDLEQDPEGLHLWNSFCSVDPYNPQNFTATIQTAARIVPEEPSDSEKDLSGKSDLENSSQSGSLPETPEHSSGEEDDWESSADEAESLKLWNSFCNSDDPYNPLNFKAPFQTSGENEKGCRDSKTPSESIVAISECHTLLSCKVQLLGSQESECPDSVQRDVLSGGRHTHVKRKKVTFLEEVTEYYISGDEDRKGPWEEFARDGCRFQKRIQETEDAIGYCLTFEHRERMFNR
T1 sequence (P36873 whole entry partner, the tested form may be a part): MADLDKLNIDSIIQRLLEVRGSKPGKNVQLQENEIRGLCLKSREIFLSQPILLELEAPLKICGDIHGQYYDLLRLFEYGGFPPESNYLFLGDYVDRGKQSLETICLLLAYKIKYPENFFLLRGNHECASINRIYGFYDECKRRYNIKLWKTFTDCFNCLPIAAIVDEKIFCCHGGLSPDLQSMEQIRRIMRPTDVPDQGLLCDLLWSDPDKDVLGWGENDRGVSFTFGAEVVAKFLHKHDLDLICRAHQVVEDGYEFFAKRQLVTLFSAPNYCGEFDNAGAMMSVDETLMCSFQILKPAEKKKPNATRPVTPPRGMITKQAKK
Method: The streptavidin coated surface was activated by 1 min injection with a solution of 50 mM NaOH and 1 M NaCl. Biotin-PP1 was diluted in the running buffer (50 mM Tris pH 7.5, 100 mM NaCl, 0.1 mM EGTA, 1 mM MnCl2, 0.05% Tween 20) and injected at approximately 300 nM concentration directly to streptavidin coated surface for 100 sec or to reach immobilization level of biotin-PP1 corresponding to ˜7000 RU. A blank immobilization was performed for one of the SA sensor chip surface to use as a reference.
With minor deviations, the same procedure and conditions were used in all binding experiments. Small molecules were stored as 50 mM stock solutions in 100% DMSO. Prior to determining binding constants, serial dilutions of either 12 or 8 concentrations of the compounds were prepared in the running buffer in a 96-well plate. […] Then, without regenerating the surface, the compound dilution series was injected onto the surface of the chip Sensorgrams were analyzed using the Biacore T200 evaluation software and the binding constants determined based on a steady-state model. Kinetic experiments are carried out using different concentrations of the compound and their respective equilibrium binding levels determined.
Surface Plasmon Resonance (SPR) was used to measure the binding affinity of compounds to the PPP1R15A/B-PP1 phosphatase complex. Biotin acceptor peptide (BAP) was fused to the N-terminus of PP1γ, which enables the biotinylation of the BAP-tagged protein in Sf9 insect cells. After purification the BAP-PP1γ protein was captured on a streptavidin sensor chip (SA-chip, GE healthcare) to a response level of ˜5.000 RU. Using controlled biotinylation enables orientated and uniform immobilization on the sensor chip surface. The PP1γ was then used to capture PPP1R15A/B and form a holophosphatase complex on the surface of the streptavidin chip. This complex can then be used to test binding of compounds. 10 μM PPP1R15A/B protein concentration was used to form the holophosphatase complex during a 80 s injection. […] After the concentration series (8 or 12 concentrations) is completed the surface is regenerated with 3 M NaCl and we can capture R15A/B again to form a fresh holophosphatase complex to measure a binding of another compound concentration series. Analysing the level of equilibrium binding as a function of concentration gives interaction affinities or steady-state binding affinity (KD).
The streptavidin coated surface was activated by 1 minute injection with a solution of 50 mM NaOH and 1 M NaCl three times at a flow rate of 10 μl/min. bio-GBZ or bio-PP1c was diluted in the running buffer (50 mM Tris pH 7.5, 100 mM NaCl, 0.1 mM EGTA, 0.05% Tween 20, 0.1% DMSO) and injected at approximately 300 nM concentration at a flow rate of 10 μl/min directly to streptavidin coated surface to reach immobilization level of bio-GBZ or bio-PP1c corresponding to ˜200 and 6000 RU, respectively. A blank immobilization was performed for one of the SA sensor chip surface to use as a reference.
With minor deviations, the same procedure and conditions were used in all binding experiments. Small molecules were stored as 50 mM stock solutions in 100% DMSO. Prior to determining binding constants, serial dilutions of either 12 or 8 concentrations of the compounds were prepared in the running buffer in a 96-well plate. […] This was followed by 1 minute stabilization period, to wash off any unspecific binding. Then, without regenerating the surface, the compound dilution series was injected onto the surface of the chip at a flow rate of 30 μl/min for 1 minute, followed by 2 minutes dissociation time. After each dilution series the surface was regenerated using 3 M NaCl for 90 seconds. […] In order to be able to correct for small variations in DMSO concentration between samples, eight solvent samples ranging from 0.06 to 8% DMSO were injected every 50th cycle. The flow cell temperature was 10° C.

HeLa cells = assay: Translation rates by 35S-methionine labelling in HeLa cells; format: cell-based, human; details: for protein synthesis / translation rates: basal conditions, 10 μM
Method: Cells (90,000 cells/ml) were plated in 12-well plates, treated as indicated, labelled with 100 μCi/ml ^35S-methionine (Hartmann Analytic) for 10 minutes at 37° C., washed with ice-cold PBS and lysed in 120 μl Laemmli Buffer. Lysates were boiled at 95° C. for 5 minutes, sonicated and resolved on 4-12% Bolt Bis-Tris Plus Gels (Thermo Fisher Scientific). Gels were then stained with InstantBlue (Expedeon) and analyzed by phosphorimaging.

[1] = Guanabenz-like side effects: mouse activity after acute dosing; format: in vivo; details: 10 mg/kg oral gavage, 30 minutes following dosing
Method: To assess whether of a compound of Example 1 had the side effects of Guanabenz, mice (n>3) were gavaged orally with 10 mg/kg of compound or Guanabenz. Their activity was monitored 30 minutes following dosing.
In order to assess the GBZ-like side effects (due to the adrenergic activity) of treatment the motor performance of mice was monitored after a single administration of TST3. To this end mice were treated with TST3 and left in a cage for 60 minutes. Mice behaviour was monitored every 15 minutes. Mice similarly treated with GBZ were used as a control.

Row | Structure (SMILES) | binding to R15B-PP1c (in words) (PPP1R15B-PP1 complex) | Kd (PPP1R15B-PP1 complex; steady-state affinity) | protein synthesis in the presence of GBZ (HeLa cells; TST3+/- GBZ at 10 μM) | protein synthesis / translation rates (HeLa cells; listed as TST3) | side effects of Guanabenz / activity of mice after dosing ([1]; 10 mg/kg) | binding to R15B-PP1c (in words) (PPP1R15B-PP1 complex; listed as GBZ) | protein synthesis / translation rates (HeLa cells) | side effects of Guanabenz / activity of mice after dosing [1]
1 | [H]/N=C(\N)NN=Cc1cccc(Cl)c1Cl [Example 1, (E)-2-(2,3-dichlorobenzylidene)hydrazine-1-carboximidamide] | bound strongly and selectively | 33 nM | persistently inhibits protein synthesis; also recorded: rendered persistent | transiently reduces protein synthesis; also recorded: rapidly and transiently decreased | as active as untreated mice; also recorded: devoid of the side effects of Guanabenz; also recorded: does not cause the side effects of Guanabenz |  |  | 
2 | N=C(N)N/N=C/c1c(Cl)cccc1Cl [Guanabenz, reference compound] |  |  |  |  |  | not or weakly; also recorded: no binding was detected | did not affect | did not move
